The test system of assay [1] is nascent TERRA transcripts. The experiment in a line: Nascent RNA capture (EU, Click-iT) and RT-qPCR for TERRA in LOX cells. It counts as cell-based, human. The following applies: 2 μM, 48 h, then EU 4 h. Here is the method:
(§1) Mei et al, 2020 TERRA Requires TRF2 GAR Domain
Nascent RNA analysis was performed as described previously 2 by the use of Click-iT Nascent RNA capture kit (Life Technologies) with some modifications. Briefly, LOX cells were treated with 2 µM of chemicals, or LOX TRF2DB cells were induced with 1 µg/ml of doxycycline for 48 hrs, and then treated cells were pulse labeled 0.2 mM EU for additional 4 hrs. Total RNA was prepared and biotinylated by Click reaction. Nascent RNA was purified by using Streptavidin T1 magnetic beads and was subject to cDNA synthesis using SuperScript VILO cDNA synthesis kit (Life Technologies). Relative Nascent RNA expression was determined using DCT methods relative to control gene U1 or Actin. Primer sequences used in qPCR analysis of 10q, 13q, XYq, and 18q TERRA were described previously 2.
Reference (Supplmentary Methods)
1 Deng, Z., Norseen, J., Wiedmer, A., Riethman, H. & Lieberman, P. M. TERRA RNA binding to TRF2 facilitates heterochromatin formation and ORC recruitment at telomeres. Mol […]
2 Deng, Z. et al. HSV-1 remodels host telomeres to facilitate viral replication. Cell Rep 9,
3 Deng, Z. et al. A role for CTCF and cohesin in subtelomere chromatin organization, TERRA transcription, and telomere end protection. EMBO J 31, 4165-4178, […]
A general note: In qPCR the cycle at which signal appears reflects the starting amount.

The next assay concerns the target TERRA. Description: FP assay, compound binding to 5′ fluorescein-labeled TERRA. The following applies: 10 nM fluorescein-labeled probe, 3 independent experiments. Here is the method:
(§2) All the nucleic acids, peptides and chemicals were dissolved in buffer containing 20 mM HEPES pH7.5, 150 mM salt (KCl, NaCl, LiCl) at the stock concentration of 1 mM. For peptide and nucleic acid interactions, 25μL of each nucleic acids with a sequential twofold dilutions starting from 50 μM was added into each well of 96-well plate followed by adding 25μL of 10 nM FITC labeled TRF2 peptide. For compounds and nucleic acid interactions, 20μL of each compounds with a sequential twofold dilutions starting from 50 μM were added into each well of 96-well plate followed by adding 5μL of 20 ng/mL tRNA and 25μL of 10 nM FAM labeled nucleic acids. For inhibition assay, 5μL FITC labeled TRF2 GAR peptide (10 nM final concentration) and 10 μL oligos (5 μM final concentration) were mixed, followed by adding 5μL of each compound with a sequential twofold dilutions starting from 50 μM into each well of 384-well plate. All components were mixed thoroughly, and the plate was incubated at room temperature for 1 h before placing in an Envision Plate Reader for reading at 495/520 nm. All data curves were fitted using Prism 8.0.

For assay [2], the system named is TERRA antisense (5'-fluorescein) (RNA, single strand) CCCUAACCCUAACCCUAACCCUAA
The experiment in a line: fluorescence polarization. The following applies: 150 mM salt (KCl, NaCl or LiCl; which not stated); 20 mM HEPES pH 7.5, room temperature, tRNA competitor; dilutions from 50 μM compound.

Assay [3] concerns TeloDNA (unlabelled) (DNA, G4) TTAGGGTTAGGGTTAGGGTTAGGG
Description: fluorescence polarization, displacement of TRF2 GAR peptide. The following applies: 150 mM KCl, NaCl or LiCl (salt not specified); 20 mM HEPES; 20 mM HEPES pH 7.5, room temperature; FITC-TRF2 GAR peptide 10 nM displaced; 5 μM oligo. (In general: In fluorescence polarisation assays a small probe gives low polarisation when free and higher when bound to something large.)

A further assay deals with EBNA1 G4 RNA. The experiment in a line: FP assay, compound binding to EBNA1 G4 RNA. Here is the method:
as §2

Assay [4] concerns TERRA (5'-fluorescein) (RNA, G4) UUAGGGUUAGGGUUAGGGUUAGGG
The experiment in a line: fluorescence polarization. The following applies: 150 mM KCl, NaCl or LiCl (salt not specified); 20 mM HEPES; 20 mM HEPES pH 7.5, room temperature, tRNA competitor added, 10 nM probe; apparent.

The subject of another assay is LOX cells. The experiment in a line: Metaphase telomere FISH in LOX cells. It counts as cell-based, human. The following applies: 2 μM, 3 days. Here is the method: as §1
Instruments, Inc., Melville, NY) with ImagePro Plus software (Media Cybernetics, Silver Spring, MD) for image processing. Cells with > 5 53BP1/γH2AX foci co-localizing with telomere DNA foci were scored as positive for TIF. The quantification was generated from at least three independent Immuno-FISH experiments.
FISH analysis on metaphase spreads was performed as previously described 5. Briefly, LOX cells were treated with indicated chemicals (2 µM) for 3 days in a 37 °C CO2 incubator. LOX TRF2∆B cells were cultured in the absence (-) or presence (+) of 1 µg/ml doxycycline for 20 days in 37 °C incubator. Colcemid (0.1 mg/ml; GIBCO) was then added to cells and incubated for 4 hrs to accumulate mitotic cells. Cells were collected by trypsinization and suspended in 75 mM KCl hypotonic solution at 37 °C for 25 min before fixation in fresh 3:1 methanol/acetic acid for 4-5 times. Fixed cells were dropped onto cold, wet glass microscope slides and allowed to dry slowly in a humid environment. Metaphase chromosome spreads were fixed in 4% paraformaldehyde in 1x PBS for 3 min, dehydrated in ethanol series [70%, 95%,100% (vol/vol)], and air-dried. Slides were denatured for 5 min at 81 °C in hybridization mix [70% (vol/vol) formamide, 10 mM Tris·HCl (pH 7.2), and 0.5% blocking solution (Roche)] containing telomeric PNA-Cy3-(CCCTAA)3 probe (PNA Bio). […]

The target of another assay is TERRA and TRF2 complex. The experiment in a line: FP inhibition assay, TRF2 GAR binding to TERRA. The following applies: for IC50: FP, 10 nM peptide, 5 μM oligo; for Selectivity Ratio IC50 (Tel DNA/TERRA): ratio of FP IC50 values. Here is the method: as §2
The test system of assay [5] is TeloDNA (5'-fluorescein) (DNA, G4) TTAGGGTTAGGGTTAGGGTTAGGG
The experiment in a line: fluorescence polarization. The following applies: 150 mM KCl, NaCl or LiCl (salt not specified); 20 mM HEPES; 20 mM HEPES pH 7.5, room temperature, tRNA competitor added, 10 nM probe; apparent.

For the next assay, the target named is G4 TeloDNA. Description: FP assay, compound binding to 5′ fluorescein-labeled TeloDNA. The following applies: 10 nM fluorescein-labeled probe, 3 independent experiments. Here is the method: as §2

For `CCc1c(C)c2cc3nc(cc4nc(cc5c(CC)c(C)c(cc1[nH]2)n5C)C(C)=C4CCC(=O)O)C(CCC(=O)O)=C3C` [NMM, N-methyl mesoporphyrin IX], in [1], the “nascent TERRA transcripts from chromosomes 10q, XYq and 18q” value was “significant reduction (~ two fold)”. Also, the EC50 (as a rule, the concentration that produces a half-maximal response) on TERRA came to 0.68 µM; in [4], 0.68 µM; in [5] it was 4.8 µM; on G4 TeloDNA it was 4.8 µM. The binding entry in assay [2] is on record as “no”. The IC50 – broadly, the concentration at which inhibition is half-maximal – turned out to be 1.0 µM in [3]; 420 nM on TERRA and TRF2 complex. For the same compound, the “binding to EBNA1 G4 RNA” value in the assay on EBNA1 G4 RNA was “did not display any binding”. Also, the “frequency of telomere aberrations incl. fragile telomere doublets” value in the assay with LOX cells is “increased the frequency of telomere aberrations”. Also, the “Selectivity Ratio IC50 (Tel DNA/TERRA)” value in the assay with TERRA and TRF2 complex is 2.38.

As for `CN(C)c1ccc(Nc2c3ccc(NC(=O)CCN4CCCC4)cc3nc3cc(NC(=O)CCN4CCCC4)ccc23)cc1` [BRACO-19], the “nascent TERRA transcripts from chromosomes 10q, XYq and 18q” value in assay [1] is recorded as “significant reduction (~ two fold)”. For the same compound, the EC50 on TERRA is 7.4 µM; on EBNA1 G4 RNA, 227 nM; in assay [4] it was 7.4 µM; in assay [5], 3.9 µM; on G4 TeloDNA it was 3.9 µM. Further, the binding entry in assay [2] is given as “no”. In addition, the IC50 in assay [3] was found to be 0.04 µM; on TERRA and TRF2 complex, 240 nM. Further, in the assay with EBNA1 G4 RNA, the “binding to EBNA1 G4 RNA” value is “high binding affinity”. In addition, the “frequency of telomere aberrations incl. fragile telomere doublets” value with LOX cells is listed as “increased the frequency of telomere aberrations”. Also, the “Selectivity Ratio IC50 (Tel DNA/TERRA)” value with TERRA and TRF2 complex was found to be 0.17.

These data come from article PMC7876106 (Scientific Reports, 2021).
